Measured values from US8394785B2, “Methods for the treatment and amelioration of urticaria” (Jado Technologies GmbH, priority 2005, dated 2013).

Assays:
[1] = test system: membrane integrity (lactate dehydrogenase release)
[2] = test system: allergic volunteers with known type-1-sensitizations; test: Prick test with histamine after topical pre-treatment, wheal size; assay type: in vivo, human; conditions: n = 5; for histamine-prick wheal ± standard error: miltefosine pre-treatment (6% solution, topical, 2 h before); for histamine-prick % inhibition ± standard error (by miltefosine pre-treatment): versus placebo pre-treatment
Description: To provide proof of concept that miltefosine inhibits IgE-dependent human mast cell stimulation and mediator release in vivo we performed a study on selected allergic volunteers with known type-1-sensitizations (n=5). The volunteers were subjected to standard prick testing with their known allergens on both forearms as well as with positive (histamine) and negative (saline) controls (Table 3). Using a double blind, placebo controlled approach, one forearm of each test person was pre-treated with topical miltefosine (6% solution). The contralateral side was subjected to a pre-treatment with a placebo solution (saline), both two hours prior to the prick test. Subsequently, developing skin symptoms were measured with high-quality standardized methods, i.e. macroscopic standard prick test-evaluation (Heinzerling et al 2005), volumetric imaging, thermography, and digital time lapse photography (DTLP). Volunteers known to suffer from permanent severe diseases, especially those affecting the immune system, were excluded from the study. None of the volunteers took any oral […] or leukotriene antagonists within 7 days prior to the beginning of the study. Moreover, none of them took any oral or depot corticosteroids or other immunosuppressive drugs within 21 days before the testing. The course of developing lesions (wheal and erythema size) was assessed macroscopically by measuring vertical and perpendicular diameter of wheal and erythema size. Subsequently, the sum of both diameters was divided by two. In addition, volumetric and thermographic imaging as well as DTLP was performed before and at defined time points after prick testing. To assess the course of developing prick test lesions, wheal size was assessed macroscopically by measuring the diameters at distinct time points after prick testing.

## CCCCCCCCCCCCCCCCOP(=O)([O-])OCC[N+](C)(C)C [Compound 3, 1-hexadecylphosphoryl-choline]
[1]
  CD50: 69.5 µM
[2]; 15 minutes after prick testing
  histamine-prick wheal ± standard error: 4.40 ± 0.86 mm
  histamine-prick % inhibition ± standard error (by miltefosine pre-treatment): 22.4 ± 14.2%
[2]; 20 minutes after prick testing
  histamine-prick wheal ± standard error: 4.30 ± 1.08 mm
  histamine-prick % inhibition ± standard error (by miltefosine pre-treatment): 19.2 ± 23.1%
[2]; 30 minutes after prick testing
  histamine-prick wheal ± standard error: 3.40 ± 1.43 mm
  histamine-prick % inhibition ± standard error (by miltefosine pre-treatment): −7.9 ± 23.2%
